Data: PubChem BioAssay AID863 (NMMLSC, 2007)
Active and inactive are the calls of the source. The rule behind the calls is not given here.

Target: fMet-Leu-Phe receptor (Homo sapiens) (UniProt P21462)
Experiment: FPR antagonists blocking calcium flux, SAR follow-up, U937 cells, fMLFF stimulus, Fluo4, flow cytometry (AID 863)
Details: FPR-expressing U937 cells, fMLFF-induced Fluo4 calcium flux, 80 s, stronger effect = higher value, concentration not given here

Sequence of fMet-Leu-Phe receptor (Homo sapiens) (P21462 whole entry, looked up): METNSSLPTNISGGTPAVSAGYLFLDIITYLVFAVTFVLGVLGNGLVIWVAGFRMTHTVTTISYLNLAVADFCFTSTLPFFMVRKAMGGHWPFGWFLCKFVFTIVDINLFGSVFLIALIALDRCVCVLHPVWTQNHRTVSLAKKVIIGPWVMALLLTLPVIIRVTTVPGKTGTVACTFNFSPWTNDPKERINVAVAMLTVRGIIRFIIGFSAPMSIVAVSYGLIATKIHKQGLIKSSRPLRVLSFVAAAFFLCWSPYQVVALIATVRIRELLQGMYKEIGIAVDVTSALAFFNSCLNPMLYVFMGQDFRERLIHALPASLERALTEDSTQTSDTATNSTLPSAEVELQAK

Row | SMILES | inhibition
1 | COc1ccc(-c2c(C(F)(F)F)oc3cc(OC(=O)c4cccnc4)ccc3c2=O)cc1OC | 85.6% (inactive)
2 | COc1ccc(-c2c(C(F)(F)F)oc3cc(OC(=O)c4ccco4)ccc3c2=O)cc1OC | 93%
3 | COc1ccccc1-c1c(C(F)(F)F)oc2cc(OC(=O)c3ccco3)ccc2c1=O | 98.8%
4 | COc1ccc(OC)c(C2/C(=C(\O)c3ccccc3)C(=O)C(=O)N2c2cccnc2)c1 (centres undefined) | 40.7% (inactive)
5 | O=C(C1=C(O)C(=O)N(CCc2ccccc2)C1c1ccc(Cl)cc1)c1cccs1 (centres undefined) | 81.3% (inactive)
6 | CCc1cc2c(=O)c(-c3nc4ccccc4n3C)c(C)oc2cc1OC(C)=O | 101%
7 | O=C(Oc1ccc2c(=O)c(-c3ccccc3Cl)c(C(F)(F)F)oc2c1)c1cccs1 | 185%
8 | COc1ccc(C2C(C(=O)c3cccs3)=C(O)C(=O)N2CCN2CCOCC2)c(OC)c1 (centres undefined) | 72.3% (inactive)
9 | Cc1nc2c(-c3ccc(Cl)cc3)c(C(F)(F)F)[nH]n2c(=O)c1Cc1ccccc1 | 98.1%
10 | COc1ccc(C2C(C(=O)c3cccs3)=C(O)C(=O)N2CCCn2ccnc2)cc1 (centres undefined) | 96.9%
11 | COc1ccc(C2/C(=C(\O)c3ccccc3)C(=O)C(=O)N2CCCn2ccnc2)c(OC)c1 (centres undefined) | 99.5%
12 | COCCN1C(=O)C(=O)/C(=C(/O)c2ccccc2)C1c1cc(OC)ccc1OC (centres undefined) | 97.5%
13 | COc1ccc(C2C(C(=O)c3ccco3)=C(O)C(=O)N2CCN2CCOCC2)c(OC)c1 (centres undefined) | 58.1% (inactive)
14 | CCCCCCN1C(=O)C(=O)/C(=C(\O)c2ccccc2)C1c1ccc(O)c(OC)c1 (centres undefined) | 44% (inactive)
